Consider 3 molecules from ChEMBL document CHEMBL4811291, “Discovery of macrocyclic HDACs 1, 2, and 3 selective inhibitors for HIV latency reactivation” (Bioorg Med Chem Lett, 2021).

A word on the EC50: it is the concentration giving half of the maximal effect. One may read the AUC as concentration integrated over time. Low values mean low exposure, high ones high exposure. As usually defined, the Cmax is the maximum level reached in the sampled fluid or tissue. One may read the bioavailability as the share of a dose that reaches the circulation, judged against a reference dose that is usually intravenous. High values mean good availability, low ones poor availability. The Tmax is the time from dosing to the highest level. What is called half-life is how long it takes for the measured level to halve. A high value points to slow loss. The IC50 is the concentration needed to halve the response being measured. A low value points to inhibition by little substance. As a reminder, the clearance is the rate of elimination divided by the concentration. Read a low clearance as a low capacity for elimination.

For data set [1], the system named is Human immunodeficiency virus. The data set is described as follows: Reactivation of HIV latency infected in human 2C4 cells in presence of 5 % NHS by luciferase reporter gene assay. To be noted: Human immunodeficiency virus 1, 2C4. It counts as functional, organism-based. (A reporter such as luciferase makes a cellular process visible.)
Data set [2] can be described thus: AUC in Wistar Han rat at 10 mg/kg, po. In kind it is ADME, organism-based. To be noted: in vivo. Details: dose 10 mg/kg.
Data set [3] can be described thus: Cmax in Wistar Han rat at 10 mg/kg, po. It counts as ADME, organism-based. Set-up: route oral, dose 10 mg/kg. To be noted: in vivo.
The species entered for another data set is Homo sapiens. The data set is described as follows: Selectivity ratio of IC50 for HDAC8 (unknown origin) to IC50 for HDAC6 (unknown origin).
A short description of data set [4]: Ratio of EC50 for reactivation of HIV latency infected in human 2C4 cells in presence of 5 % NHS by luciferase reporter gene assay to EC50 for reactivation of HIV latency infected in human 2C4 cells in presence of 0.1 % NHS by luciferase reporter gene assay. It counts as functional, Human immunodeficiency virus.
Data set [5] is described as follows: Oral bioavailability in Wistar Han rat at 10 mg/kg. It counts as ADME, organism-based. As to conditions: in vivo.
Data set [6] can be described thus: Tmax in Wistar Han rat at 10 mg/kg, po. In kind it is ADME, organism-based. To be noted: in vivo.
A short description of data set [7]: Half life in Wistar Han rat at 2 mg/kg, iv. In kind it is ADME, organism-based. As to conditions: in vivo.
Data set [8] deals with Human immunodeficiency virus. As to the kind of experiment: Reactivation of HIV latency infected in human 2C4 cells in presence of 0.1 % NHS by luciferase reporter gene assay. It counts as functional, organism-based. To be noted: Human immunodeficiency virus 1, 2C4.
For a further data set, the target named is T1, Histone deacetylase 8 (Homo sapiens, UniProt Q9BY41).
T1 sequence (Q9BY41 whole entry): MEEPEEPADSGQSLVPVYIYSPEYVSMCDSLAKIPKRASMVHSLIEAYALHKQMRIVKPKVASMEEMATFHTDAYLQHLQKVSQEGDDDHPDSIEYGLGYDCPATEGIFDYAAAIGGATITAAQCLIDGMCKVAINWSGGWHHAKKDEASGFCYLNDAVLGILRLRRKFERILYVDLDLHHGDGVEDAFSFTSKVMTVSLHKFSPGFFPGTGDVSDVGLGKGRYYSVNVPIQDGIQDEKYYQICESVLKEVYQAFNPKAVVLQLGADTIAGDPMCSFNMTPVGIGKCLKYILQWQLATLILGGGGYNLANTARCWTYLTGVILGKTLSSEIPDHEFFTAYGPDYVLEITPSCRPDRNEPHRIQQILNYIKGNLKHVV
The data set is described as follows: Inhibition of HDAC8 (unknown origin).

Data set [9] can be described thus: Clearance in Wistar Han rat at 2 mg/kg, iv. As to conditions: in vivo. In kind it is ADME, organism-based.
Data set [10] is described as follows: Plasma concentration in Wistar Han rat at 10 mg/kg, po after 24 hrs. In kind it is ADME, organism-based.
Data set [11] addresses T2, Protein deacetylase HDAC6 (Homo sapiens, UniProt Q9UBN7).
T2 sequence (Q9UBN7 whole entry): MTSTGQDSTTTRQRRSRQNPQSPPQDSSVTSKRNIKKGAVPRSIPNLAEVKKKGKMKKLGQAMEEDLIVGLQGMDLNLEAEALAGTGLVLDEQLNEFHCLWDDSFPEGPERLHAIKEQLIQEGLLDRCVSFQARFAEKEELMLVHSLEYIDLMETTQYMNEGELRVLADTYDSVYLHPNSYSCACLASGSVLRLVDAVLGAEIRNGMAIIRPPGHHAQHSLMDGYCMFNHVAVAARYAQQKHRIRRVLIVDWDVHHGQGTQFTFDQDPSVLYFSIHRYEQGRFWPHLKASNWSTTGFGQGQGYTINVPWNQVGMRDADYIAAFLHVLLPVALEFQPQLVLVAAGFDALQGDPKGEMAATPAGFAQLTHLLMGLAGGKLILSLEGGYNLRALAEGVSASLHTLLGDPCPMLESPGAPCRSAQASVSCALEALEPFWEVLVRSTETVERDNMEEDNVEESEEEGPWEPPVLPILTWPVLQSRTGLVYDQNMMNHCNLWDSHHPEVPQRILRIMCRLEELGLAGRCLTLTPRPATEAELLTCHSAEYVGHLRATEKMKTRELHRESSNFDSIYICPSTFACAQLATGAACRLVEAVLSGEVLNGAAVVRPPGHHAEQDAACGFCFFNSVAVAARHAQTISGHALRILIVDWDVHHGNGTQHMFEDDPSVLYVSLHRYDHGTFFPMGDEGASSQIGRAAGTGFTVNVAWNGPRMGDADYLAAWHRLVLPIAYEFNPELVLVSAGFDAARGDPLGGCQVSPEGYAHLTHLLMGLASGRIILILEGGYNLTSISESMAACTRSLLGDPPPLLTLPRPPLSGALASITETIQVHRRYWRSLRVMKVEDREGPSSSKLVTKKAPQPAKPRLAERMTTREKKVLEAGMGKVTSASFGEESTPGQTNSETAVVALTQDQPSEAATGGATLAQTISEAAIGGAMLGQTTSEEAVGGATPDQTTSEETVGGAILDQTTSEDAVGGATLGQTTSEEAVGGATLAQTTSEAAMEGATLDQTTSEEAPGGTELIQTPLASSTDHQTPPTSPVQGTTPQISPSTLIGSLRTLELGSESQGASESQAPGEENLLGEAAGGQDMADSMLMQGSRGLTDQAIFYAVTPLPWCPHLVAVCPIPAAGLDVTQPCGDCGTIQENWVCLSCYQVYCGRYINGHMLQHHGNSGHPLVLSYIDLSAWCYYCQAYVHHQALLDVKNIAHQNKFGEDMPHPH
The data set is described as follows: Inhibition of HDAC6 (unknown origin).

Data set [12] is described as follows: Half life in Wistar Han rat at 0.05 mg/kg, iv. It counts as ADME, organism-based. As to conditions: in vivo.
Data set [13] can be described thus: Clearance in Wistar Han rat at 0.05 mg/kg, iv. It counts as ADME, organism-based. As to conditions: in vivo.
In another data set the target is Histone deacetylase 3 (Homo sapiens, UniProt O15379). The data set is described as follows: Inhibition of HDAC3 (unknown origin).
Chain of Histone deacetylase 3 (O15379 whole entry): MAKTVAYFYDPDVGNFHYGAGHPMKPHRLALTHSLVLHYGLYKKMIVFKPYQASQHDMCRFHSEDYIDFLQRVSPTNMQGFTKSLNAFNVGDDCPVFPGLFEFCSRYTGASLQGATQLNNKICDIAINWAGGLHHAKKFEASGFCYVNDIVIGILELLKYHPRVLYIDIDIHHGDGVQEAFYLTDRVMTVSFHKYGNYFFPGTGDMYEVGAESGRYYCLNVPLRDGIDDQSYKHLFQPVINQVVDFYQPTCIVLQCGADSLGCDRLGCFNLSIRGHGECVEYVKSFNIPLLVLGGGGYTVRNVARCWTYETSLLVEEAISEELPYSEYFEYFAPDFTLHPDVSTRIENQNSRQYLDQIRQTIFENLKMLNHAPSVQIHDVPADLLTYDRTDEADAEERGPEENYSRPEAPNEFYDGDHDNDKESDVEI

A value given as a limit tells only on which side of the number the result lay.

Consider `CCC(=O)CCCCC[C@@H]1NC(=O)[C@H]2CC23CCN(CCCCCCCCn2ccc4cc(c(OC)cc4c2=O)-c2cnc1[nH]2)CC3`, for which the 50% effective concentration (EC50) in data set [1] amounted to 12 nM; in data set [8], 11 nM. This molecule returned an AUC in [2] of 0.04 µM·h. The Cmax in data set [3] turned out to be 13 nM. Also, in the data set listed under Homo sapiens, the Ratio IC50 was greater than 1000. The “Ratio EC50” value in [4] is reported as 1.1. The bioavailability in [5] worked out at 2.9%. For the same molecule, the Tmax in [6] turned out to be 3 h. Also, the half-life in data set [7] was 84 min. Besides, the IC50 on Histone deacetylase 8 is greater than 900 nM. In data set [9], this molecule came in with a clearance of 96 mL/min/kg.
`CCC(=O)CCCCC[C@@H]1NC(=O)[C@H]2CC23CCN(CCOCCn2ccc4cc(ccc4c2=O)-c2cnc1[nH]2)CC3`: the EC50 in data set [1] and in data set [8] was greater than 40000 nM throughout. In addition, in [2], the AUC worked out at 0.11 µM·h. Moreover, in [3], the highest level (Cmax) was 62 nM. In data set [5], the bioavailability came to 0.15%. This molecule gave a concentration at 24 h in data set [10] of 1 nM. In [6], the Tmax amounted to 0.25 h. In addition, the half-life in data set [7] was 234 min. The IC50 (against Histone deacetylase 8; in [11]) was greater than 900 nM throughout. In [9], this molecule displayed a clearance of 3.9 mL/min/kg.
Take `CCC(=O)CCCCC[C@@H]1NC(=O)[C@H]2CC23CCN(CCCCCCCCn2ccc4cc(ccc4c2=O)-c2cnc1[nH]2)CC3`: the figures for the EC50 in [1] and in data set [8] were 16 nM and 14 nM, respectively. Also, the Ratio IC50 in the data set filed under Homo sapiens is greater than 1000. The molecule further gave a half-life in data set [12] of 168 min. Moreover, in data set [4], the “Ratio EC50” value was 1.1. Further, in data set [13], the clearance was determined as 312 mL/min/kg. In addition, the IC50 on Histone deacetylase 8 is greater than 900 nM; in [11], greater than 900 nM; against Histone deacetylase 3, 0.06 nM.
